From patent publication US20060178359A1, “Tricyclic compound, process for producing the same, and use” (priority 2003, published 2006)

molecular target: T1, human CCR5 (Homo sapiens, UniProt P51681); assay: inhibition of [125I]-RANTES binding to CCR5/CHO cells; settings: test compound 1 μM, 100 pM [125I]-RANTES, room temperature, 40 minutes
T1 construct: expressed in transfected cells
Experimental: (1) Cloning of Human CCR5 Chemokine Receptor
Cloning of a CCR5 gene was conducted from human spleen cDNA by a PCR method. Using 0.5 ng of spleen cDNA (Toyobo Co., Ltd., QUICK-Clone cDNA) as a template, the PCR reaction was carried out in a DNA Thermal Cycler 480 (Perkin Elmer) using a TaKaRa EX Taq (Takara Shuzo Co., Ltd.) (reaction conditions: 30 cycles of treatments at 95° C. for 1 minute, at 60° C. for 1 minute, and at 75° C. for 5 minutes) by adding 25 pmol of primers, SEQ ID NO. 1 (sequence length: 34; sequence type: nucleic acid; number of chains: a single chain; topology: linear; sequence kind: other nucleic acid, synthetic DNA) described in Experimental Example (1) of WO 99/32100, and SEQ ID NO. 2 (sequence length: 34; sequence type: nucleic acid; number of chains: a single chain; topology: linear; sequence kind: other nucleic acid, synthetic DNA) described in Experimental Example (1) of WO 99/32100, respectively, which were prepared by referring to the base sequence of the CCR5 gene described by Samson et al. (Biochemistry 35 (11), 3362-3367 (1996)). The PCR products were subjected to agarose gel electrophoresis to collect DNA fragments of about 1.0 kb. Then, the CCR5 gene was cloned using an Original TA Cloning Kit (Funakoshi Co., Ltd.).
(2) Preparation of Plasmid for Expression of Human CCR5
The plasmids obtained above were digested with restriction enzymes XbaI (Takara Shuzo Co., Ltd.) and BamHI (Takara Shuzo Co., Ltd.), and subjected to agarose gel electrophoresis to collect DNA fragments of about 1.0 kb. The DNA fragments and a plasmid pcDNA3.1 (Funakoshi Co., Ltd.) for expression in animal cells, which was previously digested with XbaI and BamHI, were mixed and ligated by DNA Ligation Kit Ver. 2 (Takara Shuzo Co., Ltd.). Transformation of E. coli JM109 competent cells (Takara Shuzo Co., Ltd.) gave plasmid pCKR5.
(3) Introduction of the Plasmid for Expression of Human CCR5 into CHO-K1 Cells and Expression Thereof
CHO-K1 cells grown in a 750 ml tissue culture flask (Becton Dickinson) using Ham's F12 medium (Nihon Pharmaceutical Co., Ltd.) containing 10% fetal bovine serum (Lifetech Oriental) were collected from the flask by using 0.5 g/L trypsin-0.2 g/L EDTA (Lifetech Oriental). The cells were then washed with PBS (Lifetech Oriental), centrifuged (1000 rpm, 5 minutes), and suspended in PBS. Next, DNA was introduced into the cells using Gene Pulser (Bio-Rad Laboratories Inc.) under the following conditions. Namely, 8×10^6 cells and 10 μg of plasmid pCKR5 for expression of human CCR5 were added into a cuvette of a 0.4 cm-gap, and electroporation was carried out at an electric voltage of 0.25 kV and a capacitance of 960 μF. Subsequently, the cells were transferred into Ham's F12 medium containing 10% fetal bovine serum, and incubated for 24 hours. The cells were again collected, centrifuged, and then suspended in Ham's F12 medium containing 10% fetal bovine serum and Geneticin (Lifetech Oriental) at a concentration of 500 μg/ml. The suspension of cells was diluted to a concentration of 10^4 cells/ml, and inoculated on a 96-well plate (Becton Dickinson) to give Geneticin-resistant strains.
Subsequently, the Geneticin-resistant strains were cultured in the 96-well plate (Becton Dickinson), and then CCR5-expressing cells were selected from the resistant strains. […] The cells to which the ligand bound specifically, i.e., CCR5/CHO strains, were selected by measurement of radioactivity by γ-counter. […]

T1 sequence (P51681 whole entry): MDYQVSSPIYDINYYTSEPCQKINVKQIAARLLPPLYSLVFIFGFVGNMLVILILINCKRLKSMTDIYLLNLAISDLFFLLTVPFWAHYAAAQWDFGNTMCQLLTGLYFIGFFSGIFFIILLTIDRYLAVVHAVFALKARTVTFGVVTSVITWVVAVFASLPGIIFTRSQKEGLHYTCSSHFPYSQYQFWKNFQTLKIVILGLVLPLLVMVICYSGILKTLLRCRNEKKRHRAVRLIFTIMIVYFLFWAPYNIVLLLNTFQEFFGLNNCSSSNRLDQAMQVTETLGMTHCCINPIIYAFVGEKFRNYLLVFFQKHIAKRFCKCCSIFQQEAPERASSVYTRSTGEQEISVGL

Compound | Binding Inhibitory Ratio (%)
CCCCOCCOc1ccc(-c2ccc3c(c2)C=C(C(=O)Nc2ccc([S+]([O-])Cc4cncn4CCC)cc2)CCC2CCCN32)cc1 (centres unmarked) [Compound 5, (Ss)-9-[4-(2butoxyethoxy)phenyl]-N-[4-[[(1-propyl-1H-imidazol-5-yl)methyl]sulfinyl]phenyl]-1,2,3,3a,4,5-hexahydropyrrolo[1,2-a][1]benzazocine-6-carboxamide] | 96%
CCCCOCCOc1ccc(-c2ccc3c(c2)C=C(C(=O)Nc2ccc([S+]([O-])Cc4cncn4CCC)cc2)CCC2CCCCN32)cc1 (centres unmarked) [Compound 8, (Ss)-10-[4-(2-butoxyethoxy)phenyl]-N-[[4-[(1-propyl-1H-imidazol-5-yl)methyl]sulfinyl]phenyl]-2,3,4,4a,5,6-hexahydropyrido[1,2-a][1]benzazocine-6-carboxamide] | 97%
CCCCOCCOc1ccc(-c2cnc3c(c2)C=C(C(=O)Nc2ccc([S@@+]([O-])Cc4cncn4CCC)cc2)CCC2CCCN32)cc1 (some centres unmarked) [Compound 15, (Ss)-3-[4-(2-butoxyethoxy)phenyl]-N-[4-[[(1-propyl-1H-imidazol-5-yl)methyl]sulfinyl]phenyl]-7,8,8a,9,10,11-hexahydropyrido[3,2-g]pyrrolo[1,2-a]azocine-6-carboxamide] | 100%
CCCCOCCOc1ccc(-c2cnc3c(c2)C=C(C(=O)Nc2ccc([S@@+]([O-])Cc4cncn4CCC)cc2)CC[C@@H]2CCCN32)cc1 [Compound 16, (8aR,Ss)-3-[4-(2-butoxyethoxy)phenyl]-N-[4-[[(1-propyl-1H-imidazol-5-yl)methyl]sulfinyl]phenyl]-7,8,8a,9,10,11-hexahydropyrido[3,2-g]pyrrolo[1,2-a]azocine-6-carboxamide] | 94%
CCCCOCCOc1ccc(-c2cnc3c(c2)C=C(C(=O)Nc2ccc([S@@+]([O-])Cc4cncn4CCC)cc2)CC[C@H]2CCCN32)cc1 [Compound 17, (8aS,Ss)-3-[4-(2-butoxyethoxy)phenyl]-N-[4-[[(1-propyl-1H-imidazol-5-yl)methyl]sulfinyl]phenyl]-7,8,8a,9,10,11-hexahydropyrido[3,2-g]pyrrolo[1,2-a]azocine-6-carboxamide] | 98%
